Assay results from publication PMC8745263 (International Journal of Molecular Sciences, 2021).

Molecular target: T1, APEH partially purified from human blood cells (Homo sapiens, UniProt P13798)
T1 construct: incubated with APEH partially purified from human blood cells; from tissue; host or cells: human red blood cells (erythrocyte hemolysate from donors' blood)
T1 sequence (P13798 1-732): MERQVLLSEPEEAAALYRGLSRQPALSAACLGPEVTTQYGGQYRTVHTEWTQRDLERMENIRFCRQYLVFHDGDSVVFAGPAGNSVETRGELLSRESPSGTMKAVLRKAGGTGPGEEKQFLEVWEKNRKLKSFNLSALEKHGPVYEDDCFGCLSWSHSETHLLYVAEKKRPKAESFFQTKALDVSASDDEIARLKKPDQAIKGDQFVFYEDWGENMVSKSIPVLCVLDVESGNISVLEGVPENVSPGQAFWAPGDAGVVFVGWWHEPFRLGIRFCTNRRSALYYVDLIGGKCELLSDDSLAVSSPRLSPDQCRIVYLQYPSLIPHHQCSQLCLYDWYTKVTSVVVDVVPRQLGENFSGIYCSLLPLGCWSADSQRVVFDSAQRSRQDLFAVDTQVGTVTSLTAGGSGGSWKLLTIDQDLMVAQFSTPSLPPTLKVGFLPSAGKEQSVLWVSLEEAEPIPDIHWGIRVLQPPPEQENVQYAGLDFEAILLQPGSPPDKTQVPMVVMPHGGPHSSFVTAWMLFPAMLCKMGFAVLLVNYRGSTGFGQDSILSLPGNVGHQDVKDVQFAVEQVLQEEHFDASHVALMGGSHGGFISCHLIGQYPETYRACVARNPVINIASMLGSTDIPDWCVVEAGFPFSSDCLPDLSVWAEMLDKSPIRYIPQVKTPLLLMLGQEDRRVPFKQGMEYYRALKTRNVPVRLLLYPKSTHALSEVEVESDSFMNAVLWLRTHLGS
Test: Treatment of peptides with APEH and assessment of proteolysis by LC-MS
Type: biochemical
Settings: APEH 0.7 μg, 37 °C, 48 h; for % Degradation (overall % of peptide degraded upon exposure to APEH): sum of fragment % of Table 2(a), Tris-HCl 25 mM pH 7.5, N.D. = not degraded
Method: In order to identify the potential cleavage sites of APEH on the oxidized GDF11[48-64], the peptide was incubated alone or in combination with the enzyme and the corresponding reaction mixtures were analyzed by LC-MS. The same experiments were performed using the non-oxidized analogues as control.
Blood samples were taken from donors using syringes with heparin. In accordance with ethical principles stated in the Declaration of Helsinki, as well as with approved national and international guidelines for human research, a written informed consent was obtained from participants. The erythrocytes were separated from the plasma by centrifugation at 1800× g for 5 min at 4 °C and washed twice with an isotonic solution (10 mM Tris-HCl pH 7.6, […]; 4 °C). Lysis of erythrocytes was carried out by incubation in hypotonic solution (25 mM Tris/HCl, pH 7.5) for 30 min on ice. The hemolysate was obtained by centrifugation of the lysate at 9200× g for 40 min at 4 °C. Then, the ‘soluble fraction’ was loaded onto a DEAE Sepharose Fast Flow column, connected to an AKTA FPLC system (Amersham Biosciences, Amersham, UK), previously equilibrated in 25 mM Tris-HCl (pH 7.5) (buffer A). The bound proteins were eluted using a linear ionic strength gradient (0–100%) of 1 M NaCl in buffer A at a flow rate of 1 mL min^−1. The active fractions were collected, pooled, dialyzed against 25 mM Tris-HCl pH 7.5 and loaded on a Superdex 200 PC 3.2/30 column (Pharmacia Biotech, Stockholm, Sweden) connected to a SMART System (Pharmacia Biotech, Stockholm, Sweden). The bound proteins were eluted with 25 mM Tris-HCl buffer, pH 7.5, containing 50 mM NaCl, at a flow rate of 0.1 mL min^−1. The active fractions were collected, pooled, dialyzed against 25 mM Tris-HCl pH 7.5 and stored in the same buffer supplemented with 5% glycerol. Enzyme purification was monitored using Ac-Met-7-amino-4-methylcoumarin (AMC) as substrate. Active fractions were analyzed by SDS-PAGE (12%) in order to evaluate the enrichment of the protein during the various purification steps. The protein was also characterized by Western Blot analysis. Aliquots of protein samples were subjected to SDS-PAGE (8%), and then electroblotted onto PVDF membranes (ImmobilonTM, Millipore, Milan, Italy). Membranes were next incubated with the specific primary antibody (sc-102311, 1:5000, Santa Cruz Biotechnology, USA) and then with the horseradish peroxidase-conjugated secondary antibody for 1 h at 37 °C (1:5000, Santa Cruz Biotechnology, Dallas, TX, USA). The immune complexes formed were visualized by enhanced chemiluminescence and autoradiography, according to the manufacturer’s protocol (Amersham Biosciences, Amersham, UK). Molecular mass of the native enzyme was established by gel filtration chromatography on a Superdex 200 PC 3.2/30 column (Pharmacia Biotech, Stockholm, Sweden), connected to a SMART system (Pharmacia Biotech, Stockholm, Sweden), and calibrated with BioRad gel filtration standards (BioRad, Milano, Italy; code 151-1901). The enzyme inhibition assay was performed on APEH preparation using the selective and potent inhibitor AA74-1 (SML0358, Sigma-Aldrich, Milano, Italy). Mixtures containing appropriate amount of inhibitor (62 µM) and APEH sample (0.7 μg) were pre-incubated for 30 min at 37 °C; then the substrate Ac-Met-7-amino-4-methylcoumarin (AMC) was added to the assay mixture and the enzymatic activity was followed as previously described. Control samples were prepared by pre-incubating the same amounts of APEH without the inhibitor and then assayed following the same procedure.
In total, 10 nmol/200 μL of each molecule was incubated with APEH partially purified from human blood cells (0.7 μg, 24.000 total units) at 37 °C for 48 h in Tris-HCl 25 mM pH 7.5. […]

[1] = 10 nmol/200 μL peptide, Tris-HCl 25 mM pH 7.5, EIC peak areas, average of three independent experiments
[2] = 10 nmol/200 μL peptide, Tris-HCl 25 mM pH 7.5, EIC peak areas, average of three independent experiments, listed as GDF11[48-64]ox
[3] = 10 nmol/200 μL peptide, Tris-HCl 25 mM pH 7.5, EIC peak areas, average of three independent experiments, listed as GDF11 wt

Row | Substance | % fragment cleaved at L60 (Ac-...HTHL, lacking VQQA), percentage of the initial substrate [1] | % fragment cleaved on carboxy side of H59 (Ac-...HTH, lacking LVQQA), percentage of the initial substrate [1] | % fragment cleaved on carboxy side of Q62 (Ac-...HTHLVQ, lacking QA), percentage of the initial substrate [1] | % intact peptide left after APEH exposure (percentage of the initial substrate) [1] | % fragment cleaved at L60 (Ac-...HTHL, lacking VQQA), percentage of the initial substrate [2] | % fragment cleaved on carboxy side of H59 (Ac-...HTH, lacking LVQQA), percentage of the initial substrate [2] | % fragment cleaved on carboxy side of Q62 (Ac-...HTHLVQ, lacking QA), percentage of the initial substrate [2] | % fragment cleaved on carboxy side of H59 (Ac-...HTH, lacking LVQQA), percentage of the initial substrate [3] | % fragment cleaved on carboxy side of Q62 (Ac-...HTHLVQ, lacking QA), percentage of the initial substrate [3] | cleavage at H59 as % of the total processed peptide (Tris-HCl 25 mM pH 7.5) | cleavage at L60 as % of the total processed peptide (Tris-HCl 25 mM pH 7.5) | cleavage at Q62 as % of the total processed peptide (Tris-HCl 25 mM pH 7.5) | % Degradation (overall % of peptide degraded upon exposure to APEH) (10 nmol/200 μL peptide) | % Degradation (overall % of peptide degraded upon exposure to APEH) (10 nmol/200 μL peptide, listed as GDF11[48-64]ox) | susceptibility to APEH endoprotease cleavage (in words) (Tris-HCl 25 mM pH 7.5)
1 | Ac-EYM(ox)FM(ox)QKYPHTHLVQQA-NH2 [GDF11[48-64] wt ox, GDF11[48-64]wt bearing sulphoxide groups on M50 and M52, by 3% H2O2 treatment] | 8.4% | 25.6% | 16.4% | 49.6% | about 8% | about 26% | about 16% | ~28% | 18% | around 50% | about 17% | around 32% | 50.4% | around 50% | 
2 | Ac-EYMFMQKYPHTHLVQQA-NH2 [GDF11[48-64]wt, peptide reproducing the 48–64 region of GDF11 protein, acetylated and amidated] |  |  |  |  |  |  |  |  |  |  |  |  |  |  | No cleavage
